Measured values published in ChEMBL document CHEMBL1201862, “PubChem BioAssay data set” (2004).
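Compound exposure: 48 hours, 5 concentrations, 96-well plates. The concentration for 50% growth inhibition is given as GI50.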 Activity calls are given as the source filed them. Rule as the data show it: active = GI50 up to about 1.1 µM and inactive = higher.

Legend:
Assay in all cases: NCI anticancer screen, dose series, 48 h
NCI-H23 = tested on: NCI-H23
NCI-H460 = tested on: NCI-H460
SK-MEL-2 = tested on: SK-MEL-2
MCF7 = tested on: MCF7
SW-620 = tested on: SW-620
SK-MEL-28 = tested on: SK-MEL-28
HT-29 = tested on: HT-29
OVCAR-3 = tested on: OVCAR-3
786-0 = tested on: 786-0
KM12 = tested on: KM12
T47D = tested on: T47D
SNB-19 = tested on: SNB-19
MDA-MB-231 = tested on: MDA-MB-231
DU-145 = tested on: DU-145
A549 = tested on: A549
Malme-3M = tested on: Malme-3M
UACC-257 = tested on: UACC-257
BT-549 = tested on: BT-549
K562 = tested on: K562
SF-268 = tested on: SF-268
MDA-N = tested on: MDA-N
SN12C = tested on: SN12C
IGROV-1 = tested on: IGROV-1
CAKI-1 = tested on: CAKI-1
CCRF-CEM = tested on: CCRF-CEM
RPMI-8226 = tested on: RPMI-8226
RXF 393 = tested on: RXF 393
HL-60 = tested on: HL-60
OVCAR-8 = tested on: OVCAR-8
NCI-H226 = tested on: NCI-H226
SF-295 = tested on: SF-295
SK-MEL-5 = tested on: SK-MEL-5
EKVX = tested on: EKVX
SNB-75 = tested on: SNB-75
MOLT-4 = tested on: MOLT-4
TK-10 = tested on: TK-10
OVCAR-4 = tested on: OVCAR-4
HCT-15 = tested on: HCT-15
HOP-92 = tested on: HOP-92
M14 = tested on: M14
ACHN = tested on: ACHN
NCI-H522 = tested on: NCI-H522
HOP-62 = tested on: HOP-62
SR = tested on: SR
A498 = tested on: A498
HCC 2998 = tested on: HCC 2998
SF-539 = tested on: SF-539
UO-31 = tested on: UO-31
PC-3 = tested on: PC-3
HCT-116 = tested on: HCT-116
U-251 = tested on: U-251
Hs-578T = tested on: Hs-578T
LOX IMVI = tested on: LOX IMVI
OVCAR-5 = tested on: OVCAR-5
NCI/ADR-RES = tested on: NCI/ADR-RES
SK-OV-3 = tested on: SK-OV-3
MDA-MB-435 = tested on: MDA-MB-435
UACC-62 = tested on: UACC-62

Measured: GI50

O=C(O)c1ccc(C2SCc3nc4ccccc4n32)cc1 (configuration not stated)
> 100 µM: HCT-15
inactive: NCI-H23 > 100 µM | NCI-H460 > 100 µM | SK-MEL-2 > 100 µM | MCF7 > 100 µM | SW-620 > 100 µM | SK-MEL-28 > 100 µM | HT-29 > 100 µM | OVCAR-3 > 100 µM | 786-0 > 100 µM | KM12 > 100 µM | T47D > 10 µM | SNB-19 > 100 µM | MDA-MB-231 > 100 µM | DU-145 > 100 µM | A549 > 100 µM | Malme-3M > 100 µM | UACC-257 > 100 µM | BT-549 > 100 µM | K562 > 100 µM | SF-268 > 100 µM | MDA-N > 100 µM | SN12C > 100 µM | IGROV-1 > 100 µM | CAKI-1 > 100 µM | CCRF-CEM > 100 µM | RPMI-8226 > 100 µM | RXF 393 > 100 µM | HL-60 > 100 µM | OVCAR-8 > 100 µM | NCI-H226 > 100 µM | SF-295 > 100 µM | SK-MEL-5 > 100 µM | EKVX > 100 µM | SNB-75 > 100 µM | MOLT-4 > 100 µM | TK-10 > 100 µM | OVCAR-4 > 100 µM | HOP-92 > 100 µM | M14 > 100 µM | ACHN > 100 µM | NCI-H522 > 100 µM | HOP-62 > 100 µM | SR > 100 µM | A498 > 100 µM | HCC 2998 > 100 µM | SF-539 > 100 µM | UO-31 > 100 µM | PC-3 > 100 µM | HCT-116 > 100 µM | U-251 > 100 µM | Hs-578T > 100 µM | LOX IMVI > 10 µM | OVCAR-5 > 100 µM

Cc1cc(S(=O)(=O)O)c(NC(=O)c2oc3cc(O)ccc3c(=O)c2C)cc1Cl
inactive: NCI-H23 > 100 µM | NCI-H460 > 100 µM | SK-MEL-2 > 100 µM | MCF7 > 100 µM | SW-620 > 100 µM | SK-MEL-28 > 100 µM | HT-29 > 100 µM | OVCAR-3 > 100 µM | 786-0 > 100 µM | KM12 > 100 µM | T47D > 100 µM | SNB-19 > 100 µM | MDA-MB-231 > 100 µM | NCI/ADR-RES > 100 µM | A549 > 100 µM | Malme-3M > 100 µM | UACC-257 > 100 µM | BT-549 > 100 µM | K562 > 100 µM | SF-268 > 100 µM | MDA-N > 100 µM | SN12C > 100 µM | IGROV-1 > 100 µM | CAKI-1 > 100 µM | SK-OV-3 > 100 µM | RPMI-8226 > 100 µM | MDA-MB-435 > 100 µM | RXF 393 > 100 µM | OVCAR-8 > 100 µM | NCI-H226 > 100 µM | SF-295 > 100 µM | SK-MEL-5 > 100 µM | EKVX > 100 µM | SNB-75 > 100 µM | MOLT-4 > 100 µM | TK-10 > 100 µM | UACC-62 > 100 µM | OVCAR-4 > 100 µM | M14 > 100 µM | ACHN > 100 µM | NCI-H522 > 100 µM | HOP-62 > 100 µM | SR > 10 µM | HCC 2998 > 100 µM | SF-539 > 100 µM | UO-31 > 100 µM | PC-3 > 100 µM | HCT-116 > 100 µM | U-251 > 100 µM | Hs-578T > 100 µM | LOX IMVI > 100 µM | OVCAR-5 > 100 µM
> 100 µM: HCT-15
